Reference: PubChem BioAssay AID2060884 (Molecular Pharmacology Branch, DTP, NCI, 2025)
pIC50: −log10 of the molar value.

Test system: NCI-H929 complex spheroids, viability % test/control
Assay: Anticancer human tumor NCI-H929 cell line growth inhibition [RAS];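 also: compound exposure lasted seven days before viability was read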;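 as to viability, T/C: 100% = DMSO vehicle control viability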
Settings: for pIC50: curve of first compound; for viability, T/C: stronger effect = lower value
In short: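 Multi-cell-type spheroids: tumor cells plus HUVEC endothelial cells and mesenchymal stem cells. RAS-pathway inhibitors were combined with targeted agents, each dosed in half-log steps down from clinical Cmax, or from 10 microM when Cmax was unknown.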

For `CC1(C)CCC(Nc2ncc(C(F)(F)F)c(-c3c[nH]c4c(P(C)(C)=O)c(C#N)ccc34)n2)CN1` (stereo unspecified) + C#Cc1c(F)ccc2cc(O)cc(-c3ncc4c(N5CC6CCC(C5)N6)nc(OCC56CCCN5CC(F)C6)nc4c3F)c12, the pIC50 (second compound 0.0316 µM) was 8.22, the pIC50 (second compound 0.1 µM) was 8.18 and the pIC50 (second compound 0.316 µM) was 8.18. The pIC50 (second compound 1 µM) was 8.18, the pIC50 (second compound 3.16 µM) was 8.17 and the pIC50 (second compound 10 µM) was 8.17. For the same compound, the viability, T/C (second compound 0.0316 µM, first compound 0.000949 µM) was 129%, the viability, T/C (second compound 0.0316 µM, first compound 0.003 µM) was 98.5% and the viability, T/C (second compound 0.0316 µM, first compound 0.00949 µM) was 17.9%. It also gave a viability, T/C (second compound 0.0316 µM, first compound 0.03 µM) of 12.8%, a viability, T/C (second compound 0.0316 µM, first compound 0.0949 µM) of 8.56% and a viability, T/C (second compound 0.0316 µM, first compound 0.3 µM) of 5.72%. It also gave a viability, T/C (second compound 0.1 µM, first compound 0.000949 µM) of 124%, a viability, T/C (second compound 0.1 µM, first compound 0.003 µM) of 116% and a viability, T/C (second compound 0.1 µM, first compound 0.00949 µM) of 18.6%. It also gave a viability, T/C (second compound 0.1 µM, first compound 0.03 µM) of 13.8%, a viability, T/C (second compound 0.1 µM, first compound 0.0949 µM) of 8.47% and a viability, T/C (second compound 0.1 µM, first compound 0.3 µM) of 5.88%. For the same compound, the viability, T/C (second compound 0.316 µM, first compound 0.000949 µM) was 127%, the viability, T/C (second compound 0.316 µM, first compound 0.003 µM) was 114% and the viability, T/C (second compound 0.316 µM, first compound 0.00949 µM) was 19.6%. For the same compound, the viability, T/C (second compound 0.316 µM, first compound 0.03 µM) was 18%, the viability, T/C (second compound 0.316 µM, first compound 0.0949 µM) was 8.37% and the viability, T/C (second compound 0.316 µM, first compound 0.3 µM) was 5.86%. It also gave a viability, T/C (second compound 1 µM, first compound 0.000949 µM) of 121%, a viability, T/C (second compound 1 µM, first compound 0.003 µM) of 112% and a viability, T/C (second compound 1 µM, first compound 0.00949 µM) of 19.3%. The viability, T/C (second compound 1 µM, first compound 0.03 µM) was 48.8%, the viability, T/C (second compound 1 µM, first compound 0.0949 µM) was 9.11% and the viability, T/C (second compound 1 µM, first compound 0.3 µM) was 5.75%. For the same compound, the viability, T/C (second compound 3.16 µM, first compound 0.000949 µM) was 127%, the viability, T/C (second compound 3.16 µM, first compound 0.003 µM) was 118% and the viability, T/C (second compound 3.16 µM, first compound 0.00949 µM) was 22.1%. The viability, T/C (second compound 3.16 µM, first compound 0.03 µM) was 22.5%, the viability, T/C (second compound 3.16 µM, first compound 0.0949 µM) was 9.71% and the viability, T/C (second compound 3.16 µM, first compound 0.3 µM) was 6.25%. It also gave a viability, T/C (second compound 10 µM, first compound 0.000949 µM) of 125%, a viability, T/C (second compound 10 µM, first compound 0.003 µM) of 104% and a viability, T/C (second compound 10 µM, first compound 0.00949 µM) of 23.3%. It also gave a viability, T/C (second compound 10 µM, first compound 0.03 µM) of 63.5%, a viability, T/C (second compound 10 µM, first compound 0.0949 µM) of 14.7% and a viability, T/C (second compound 10 µM, first compound 0.3 µM) of 10.9%.

With `Nc1ccn(C2OC(CO)C(O)C2(F)F)c(=O)n1` (stereo unspecified) + CCn1c(-c2cccnc2C(C)OC)c2c3cc(ccc31)N1CCOC(CC(NC(=O)C(C(C)C)N(C)C(=O)C3(F)CCN(C(=O)C#CC(C)(C)N(C)C)CC3)C(=O)N3CCCC(N3)C(=O)OCC(C)(C)C2)C1 the pIC50 (second compound 0.000949 µM) was 8.21, the pIC50 (second compound 0.003 µM) was 8.21 and the pIC50 (second compound 0.00949 µM) was 8.24. The pIC50 (second compound 0.03 µM) was 8.22, the pIC50 (second compound 0.0949 µM) was 8.26 and the pIC50 (second compound 0.3 µM) was 8.24. For the same compound, the viability, T/C (second compound 0.000949 µM, first compound 0.00316 µM) was 105%, the viability, T/C (second compound 0.000949 µM, first compound 0.01 µM) was 10.1% and the viability, T/C (second compound 0.000949 µM, first compound 0.0316 µM) was 0.99%. The viability, T/C (second compound 0.000949 µM, first compound 0.1 µM) was 0.68%, the viability, T/C (second compound 0.000949 µM, first compound 0.316 µM) was 0.75% and the viability, T/C (second compound 0.000949 µM, first compound 1 µM) was 0.74%. It also gave a viability, T/C (second compound 0.003 µM, first compound 0.00316 µM) of 103%, a viability, T/C (second compound 0.003 µM, first compound 0.01 µM) of 12.8% and a viability, T/C (second compound 0.003 µM, first compound 0.0316 µM) of 0.86%. It also gave a viability, T/C (second compound 0.003 µM, first compound 0.1 µM) of 0.83%, a viability, T/C (second compound 0.003 µM, first compound 0.316 µM) of 0.91% and a viability, T/C (second compound 0.003 µM, first compound 1 µM) of 0.96%. For the same compound, the viability, T/C (second compound 0.00949 µM, first compound 0.00316 µM) was 96.3%, the viability, T/C (second compound 0.00949 µM, first compound 0.01 µM) was 6.3% and the viability, T/C (second compound 0.00949 µM, first compound 0.0316 µM) was 1.25%. The viability, T/C (second compound 0.00949 µM, first compound 0.1 µM) was 0.77%, the viability, T/C (second compound 0.00949 µM, first compound 0.316 µM) was 0.75% and the viability, T/C (second compound 0.00949 µM, first compound 1 µM) was 0.72%. The viability, T/C (second compound 0.03 µM, first compound 0.00316 µM) was 99.8%, the viability, T/C (second compound 0.03 µM, first compound 0.01 µM) was 9.61% and the viability, T/C (second compound 0.03 µM, first compound 0.0316 µM) was 1.21%. It also gave a viability, T/C (second compound 0.03 µM, first compound 0.1 µM) of 0.91%, a viability, T/C (second compound 0.03 µM, first compound 0.316 µM) of 0.88% and a viability, T/C (second compound 0.03 µM, first compound 1 µM) of 0.89%. It also gave a viability, T/C (second compound 0.0949 µM, first compound 0.00316 µM) of 92.5%, a viability, T/C (second compound 0.0949 µM, first compound 0.01 µM) of 3.76% and a viability, T/C (second compound 0.0949 µM, first compound 0.0316 µM) of 1.08%. The viability, T/C (second compound 0.0949 µM, first compound 0.1 µM) was 0.91%, the viability, T/C (second compound 0.0949 µM, first compound 0.316 µM) was 0.76% and the viability, T/C (second compound 0.0949 µM, first compound 1 µM) was 0.75%. The viability, T/C (second compound 0.3 µM, first compound 0.00316 µM) was 103%, the viability, T/C (second compound 0.3 µM, first compound 0.01 µM) was 2.46% and the viability, T/C (second compound 0.3 µM, first compound 0.0316 µM) was 1.01%. The viability, T/C (second compound 0.3 µM, first compound 0.1 µM) was 0.96%, the viability, T/C (second compound 0.3 µM, first compound 0.316 µM) was 0.99% and the viability, T/C (second compound 0.3 µM, first compound 1 µM) was 0.8%.

`C=CC(=O)Nc1cc(Nc2nccc(-c3cn(C)c4ccccc34)n2)c(OC)cc1N(C)CCN(C)C` + C#Cc1c(F)ccc2cc(O)cc(-c3ncc4c(N5CC6CCC(C5)N6)nc(OCC56CCCN5CC(F)C6)nc4c3F)c12 was tested, and the pIC50 (second compound 0.0316 µM) was under 6.00, the pIC50 (second compound 0.1 µM) was under 6.00 and the pIC50 (second compound 0.316 µM) was under 6.00. For the same compound, the pIC50 (second compound 1 µM) was under 6.00, the pIC50 (second compound 3.16 µM) was under 6.00 and the pIC50 (second compound 10 µM) was under 6.00. For the same compound, the viability, T/C (second compound 0.0316 µM, first compound 0.00316 µM) was 101%, the viability, T/C (second compound 0.0316 µM, first compound 0.01 µM) was 94.1% and the viability, T/C (second compound 0.0316 µM, first compound 0.0316 µM) was 101%. For the same compound, the viability, T/C (second compound 0.0316 µM, first compound 0.1 µM) was 95.4%, the viability, T/C (second compound 0.0316 µM, first compound 0.316 µM) was 99.7% and the viability, T/C (second compound 0.0316 µM, first compound 1 µM) was 98.8%. It also gave a viability, T/C (second compound 0.1 µM, first compound 0.00316 µM) of 96.8%, a viability, T/C (second compound 0.1 µM, first compound 0.01 µM) of 97.5% and a viability, T/C (second compound 0.1 µM, first compound 0.0316 µM) of 102%. It also gave a viability, T/C (second compound 0.1 µM, first compound 0.1 µM) of 98.6%, a viability, T/C (second compound 0.1 µM, first compound 0.316 µM) of 101% and a viability, T/C (second compound 0.1 µM, first compound 1 µM) of 102%. It also gave a viability, T/C (second compound 0.316 µM, first compound 0.00316 µM) of 98.1%, a viability, T/C (second compound 0.316 µM, first compound 0.01 µM) of 101% and a viability, T/C (second compound 0.316 µM, first compound 0.0316 µM) of 103%. It also gave a viability, T/C (second compound 0.316 µM, first compound 0.1 µM) of 99.2%, a viability, T/C (second compound 0.316 µM, first compound 0.316 µM) of 104% and a viability, T/C (second compound 0.316 µM, first compound 1 µM) of 101%. For the same compound, the viability, T/C (second compound 1 µM, first compound 0.00316 µM) was 94%, the viability, T/C (second compound 1 µM, first compound 0.01 µM) was 97.2% and the viability, T/C (second compound 1 µM, first compound 0.0316 µM) was 106%. The viability, T/C (second compound 1 µM, first compound 0.1 µM) was 102%, the viability, T/C (second compound 1 µM, first compound 0.316 µM) was 102% and the viability, T/C (second compound 1 µM, first compound 1 µM) was 102%. The viability, T/C (second compound 3.16 µM, first compound 0.00316 µM) was 101%, the viability, T/C (second compound 3.16 µM, first compound 0.01 µM) was 97.8% and the viability, T/C (second compound 3.16 µM, first compound 0.0316 µM) was 103%. It also gave a viability, T/C (second compound 3.16 µM, first compound 0.1 µM) of 98.8%, a viability, T/C (second compound 3.16 µM, first compound 0.316 µM) of 102% and a viability, T/C (second compound 3.16 µM, first compound 1 µM) of 104%. It also gave a viability, T/C (second compound 10 µM, first compound 0.00316 µM) of 94%, a viability, T/C (second compound 10 µM, first compound 0.01 µM) of 98.8% and a viability, T/C (second compound 10 µM, first compound 0.0316 µM) of 94.8%. It also gave a viability, T/C (second compound 10 µM, first compound 0.1 µM) of 102%, a viability, T/C (second compound 10 µM, first compound 0.316 µM) of 99.1% and a viability, T/C (second compound 10 µM, first compound 1 µM) of 98.3%.
